Data as given in US6949648B2, “Condensed pyrazole derivatives, process for producing the same and use thereof” (Takeda Pharmaceutical Company Limited, priority 2000, dated 2005).
Read-outs that look alike come from different tables or passages of the source. Marks after values point to notes of the source that are not given here.

Experiments:
[1] = tested on: mucosa of small intestine; experiment: Disorder of mucosa of small intestine; format: in vivo, SD rats; settings: 100 mg/kg orally, freely fed rats, 6 hours after dosing
Method: Disorder of Mucosa of Small Intestine Male SD origin male-rats (7 weeks old, CLEA Japan) were used. To the rats freely fed, samples were administered orally (5 mL/kg, b.w.). After 5.5 hours from the administration, Evan's Blue (0.5% Evan's Blue/saline) was injected (1 mL/rat) intravenously under no anesthesia. After 30 minutes from the shot, the intestine was removed by celiotomy and the area thereof facing mesentery was cut open. After removal of intestinal content, the spots in the intestine dyed by Evan's Blue were measured under a stereomicroscope, and the total length (mm) of the spots was determined by a counter and recorded.

yeast-induced pyrexia = experiment: Antipyretic activity in yeast-induced pyrexia; format: in vivo, SD rats; settings: 10 mg/kg orally; maximum difference in body temperature vs control over 6 hours
Method: Antipyretic Activity in Yeast-Induced Pyrexia Antipyretic activity was determined using male SD origin male-rats (7 weeks old, CLEA Japan, 1 group: n=6), according to the method of winter et. al. (J. Pharmacol. Exp. Ther., vol. 138, p. 405, 1963). Before 16 hours from measurement of body temperature, a suspension of 15% yeast in saline was injected subcutaneously (10 mL/kg, b.w.) into the rats to induce fever, and simultaneously supply of food was terminated while water was made available all the time. Each of the rats was raised separately. After 16 hours from the yeast shot, a thermistor terminal was inserted at an about 4 cm depth into rectum every hour, and the body temperatures after 30 seconds were recorded. After 18 hours, rats developing fevers consistently were selected, and a sample was orally administered to the rats (5 mL/kg, b.w.), while to the control, only the solvent was administered. After the administration, body temperatures were measured every hour for a period of 6 hours, and the maximum difference in body temperature between the rats in the sample group and in the control group were determined as Δ (° C.).

adjuvant arthritis = experiment: Anti-adjuvant-arthritic activity; format: in vivo, SD rats; settings: 10 mg/kg orally once a day for 14 days; volume of left hind limb (not injected); day of reading not given
Method: Anti-Adjuvant-Arthritic Activity
Male SD origin male-rats (6 weeks old, CLEA Japan, 1 group: n=7) were used. The adjuvant arthritis method was conducted according to the method of Newbould B. B. et. al., (Brit. J. Pharmacol. Chemother., vol. 21, p. 127, 1963). Complete Freund's adjuvant (a suspension of killed tubercule bacillus in liquid paraffin at a concentration of 0.5%, 0.05 mL) was injected into the right hind limb footpad intracutaneouly to induce multiple arthritis. Samples were administered orally (10 mg/kg, b.w.), once a day for 14 days from the day before the injection day 0 to day 13. Volume of the left hind limb (not injected) was determined by the foot-volume measurement apparatus manufactured by Ugo Basile, on the day just before the adjuvant shot (Day 0), Day 10 and Day 14, and repression rate (%) was calculated comparing the values between the sample group and the control group.

human COX-1 = molecular target: T1, human COX-1 (Homo sapiens, UniProt P23219); experiment: Determination of COX-1 inhibitory activity (microsome fraction, chemiluminescence); format: biochemical; settings: microsome fraction 40 μg, arachidonic acid, 37° C. 25 minutes preincubation; read-out: Repression rate IC50 (μM) COX-1
T1 construct: made in house; host or cells: Sf-21 insect cells (recombinant baculovirus BAC-COX1, pFASTBAC1); microsome fraction
T1 sequence (P23219 24-599): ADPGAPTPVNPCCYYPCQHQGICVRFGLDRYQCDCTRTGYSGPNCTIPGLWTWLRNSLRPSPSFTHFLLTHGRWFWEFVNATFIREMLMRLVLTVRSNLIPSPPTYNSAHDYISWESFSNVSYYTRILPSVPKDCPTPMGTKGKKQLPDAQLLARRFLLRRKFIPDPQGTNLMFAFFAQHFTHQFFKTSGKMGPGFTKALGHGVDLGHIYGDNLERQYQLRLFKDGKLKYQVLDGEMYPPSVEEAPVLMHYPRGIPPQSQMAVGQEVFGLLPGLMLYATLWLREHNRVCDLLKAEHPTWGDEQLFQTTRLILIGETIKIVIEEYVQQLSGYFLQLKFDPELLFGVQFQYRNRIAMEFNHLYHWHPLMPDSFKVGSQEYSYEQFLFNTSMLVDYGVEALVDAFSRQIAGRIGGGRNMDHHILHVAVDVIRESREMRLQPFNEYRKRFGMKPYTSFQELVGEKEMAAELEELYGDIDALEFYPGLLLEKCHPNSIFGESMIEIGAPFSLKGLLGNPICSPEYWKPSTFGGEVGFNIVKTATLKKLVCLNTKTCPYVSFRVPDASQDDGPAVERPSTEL
Method: A 1.8 kb DNA fragment containing human COX-1 cDNA (FASEB J., vol. 5 (9), p. 2304-2312 (1991)) prepared by the PCR method was inserted into plasmid pFASTBAC1 (CIBCOBRL) to obtain a plasmid pFBCOX1.
Using the plasmid pFBCOX1 and BAC-TO-BAC Baculovirus Expression System (GIBCOBRL), a virus stock BAC-COX1 of the recombinant baculovirus was prepared.
Sf-21 cells were inoculated in 125 mL of Sf-900 II SFM medium (GIBCOBRL) at a concentration of 1×10^6 cells/mL, and the medium was incubated at 27° C. for 24 hours. 0.75 mL of the virus stock BAC-COX1 of the recombinant baculovirus was added thereto, and the mixture was incubated further for 72 hours. The cells were separated from the medium by centrifugation (3000 rpm, 10 min), and washed with PBS twice. The cells were suspended in 10 mL of a Lysis buffer (0.1M Tris-HCl (pH 7.4), 5 mM EDTA), and were treated with a homogenizer (POLYTRON) three times at 20000 rpm for 20 seconds so that the cells were crushed. The supernatant obtained after centrifugation (2000 rpm, 10 minutes) was further centrifuged (40000 rpm, 45 minutes) to give a precipitate, which was resuspended in a Lysis buffer (0.1M Tris-HCl (pH 7.4), 5 mM EDTA), and the suspension was stored at −80° C.
(§1) Determination of COX-1 and COX-2 Inhibitory Activities
(§2) To a mixture of 20 μL of a reaction buffer previously concentrated 10 times (1M Tris-HCl (pH8.0), 50 mM EDTA, 1.0% Tween 20, 50 mM luminol, 100 μM hematin), 20 μL of the microsome fractions (COX-1: 40 μg, COX-2: 20 μg), and 55 μL of distilled water, a sample compound dissolved in DMF (5 μL) was added, and the mixture was left at 37° C. for 25 minutes. The reaction was started by the addition of 20 μM arachidonic acid (100 μL), and chemiluminescence amount during the 10-second period after the addition of arachidonic acid was determined by the use of Lumistar (BMG Lab technologies, GmbH). The inhibition rate was calculated, regarding that the enzyme activity when DMF ([…]) was added was 100%, and the enzyme activity when 4 mM flurbiprofen (5 μL) was added was 0%.

human COX-2 = molecular target: T2, human COX-2 (Homo sapiens, UniProt P35354); experiment: Determination of COX-2 inhibitory activity (microsome fraction, chemiluminescence); format: biochemical; settings: microsome fraction 20 μg, arachidonic acid, 37° C. 25 minutes preincubation; read-out: Repression rate IC50 (μM) COX-2
T2 construct: made in house; host or cells: Sf-21 insect cells (recombinant baculovirus BAC-COX2, pFASTBAC1); microsome fraction
T2 sequence (P35354 18-604): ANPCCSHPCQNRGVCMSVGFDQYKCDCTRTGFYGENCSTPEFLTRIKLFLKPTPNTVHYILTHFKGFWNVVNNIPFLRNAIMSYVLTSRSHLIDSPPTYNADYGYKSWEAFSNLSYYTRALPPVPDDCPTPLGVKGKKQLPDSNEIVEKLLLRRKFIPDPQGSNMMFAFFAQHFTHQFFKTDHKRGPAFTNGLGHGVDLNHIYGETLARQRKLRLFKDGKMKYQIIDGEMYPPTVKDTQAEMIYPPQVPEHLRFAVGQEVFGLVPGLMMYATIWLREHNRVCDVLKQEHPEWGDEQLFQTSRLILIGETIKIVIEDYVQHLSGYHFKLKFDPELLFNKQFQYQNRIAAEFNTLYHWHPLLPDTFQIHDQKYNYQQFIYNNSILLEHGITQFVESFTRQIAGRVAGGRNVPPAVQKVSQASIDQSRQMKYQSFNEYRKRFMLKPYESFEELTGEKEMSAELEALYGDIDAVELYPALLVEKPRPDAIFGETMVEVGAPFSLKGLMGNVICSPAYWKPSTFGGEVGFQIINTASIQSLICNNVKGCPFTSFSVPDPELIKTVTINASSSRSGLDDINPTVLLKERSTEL
Method: A 1.8 kb DNA fragment containing human COX-2 cDNA (Proc. Natl. Acad. Sci. U.S.A., vol. 89 (16), p. 7384-7388 (1992)) prepared by the PCR method was inserted into plasmid pFASTBAC1 (CIBCOBRAL) to obtain a plasmid pFBCOX2.
Using the plasmid pFBCOX2 and BAC-TO-BAC Baculovirus Expression System (GIBCOBRAL), a virus stock BAC-COX2 of the recombinant baculovirus was prepared.
Sf-21 cells were inoculated in 125 mL of LSf-900 II SFM medium (GIBCOBRAL) at a concentration of 1×10^6 cells/mL, and the medium was incubated at 27° C. for 24 hours. 0.75 mL of the virus stock BAC-COX2 of the recombinant baculovirus was added thereto, and was incubated further for 72 hours. The cells were separated from the medium by centrifugation (3000 rpm, 10 min), and washed with PBS twice. The cells were suspended in 10 mL of a Lysis buffer (0.1M Tris-HCl (pH 7.4), 5 mM EDTA), and were treated with a homogenizer (POLYTRON), three times at 20000 rpm for 20 seconds so that the cells were crushed. The supernatant thus obtained after centrifugation (2000 rpm, 10 minutes) was further centrifuged (40000 rpm, 45 minutes) to obtain a precipitate, which was resuspended in a Lysis buffer (0.1M Tris-HCl (pH 7.4), 5 mM EDTA), and the suspension was stored at −80° C.
as §1, §2

[2] = tested on: carrageenin edema of right hind limb plantar; experiment: Anti-inflammatory activity, carrageenin edema method; format: in vivo, SD-rats; settings: po, 10 mg/kg orally
Method: Anti-Inflammatory Activity
Male SD-rats (6 weeks old, CLEA Japan) were used (1 group, n=6). The Carrageenin edema method was performed according to the method of Winter et. al., (Proc. Soc. Exp. Biol. Med., vol. 111, p. 544-547, 1962). After the volume of right hind limb plantar of the rat was determined, a sample was orally administered (1.0 mL, b.w.), and immediately water was orally administered in an amount of 5 mL/rat. Meanwhile, only the solvent of the sample was orally administered to rats in control. After 1 hour, a solution of 1% carrageenin in saline (0.05 mL) was injected into the right hind limb plantar subcutaneously to induce edema. After 2 and 3 hours later from the injection, volumes of the right hind limb plantar were determined. The repression rate (%) of the sample was calculated by comparing the difference of the volumes of the plantar before the carrageenin shot and 2 and 3 hours after the shot between the sample groups and the control groups.

[3] = tested on: acetic acid induced rising and stretching; experiment: Analgesic activity, acetic acid rising method; format: in vivo, ICR-mice; settings: po, 20 min; 10 mg/kg orally, 30 minutes before 0.6% acetic acid i.p.; number of rising and stretching in 20 minutes; read-out: Repression rate (%) Dosage 10 mg/kg
Method: Analgesic Activity Acetic Acid Rising Method Male ICR-mice (5 weeks old, CLEA Japan) were used (1 group, n=10), and a sample was orally administered (0.2 mL/10 g, b.w.). After 30 minutes, 0.6% acetic acid solution was injected to mice intraperitoneally (0.1 mL/10 g, b.w.), and the mice were immediately transferred into an observation cage made of a transparent acrylic resin. The number of rising and stretching during the following period of 20 minutes was counted. The repression rate (%) was calculated by comparing the average numbers between the sample groups and the control groups.

melting point [°C] | Compound | Total length of dyed spots (mm) [1] | Repression rate (%) Dosage 10 mg/kg (adjuvant arthritis) | other results
 | Cc1nn(-c2ccccn2)c2[nH]c3ccccc3c(=O)c12 [Example 2-12, 3-Methyl-1-(2-pyridinyl)-1,9-dihydro-4H-pyrazolo[3,4-b]quinolin-4-one] | 0 (100 mg/kg) mm |  | 
93 to 96 | Cc1nn(-c2ccccn2)c2nc3ccccc3c(OC(C)C)c12 [Example 2-18, 4-Isopropoxy-3-methyl-1-(2-pyridinyl)-1H-pyrazolo[3,4-b]quinoline] |  | 47% | Δ (° C.) Dosage 10 mg/kg (yeast-induced pyrexia): 1.7** ° C.
 | Cc1nn(-c2ccccn2)c2[nH]c3ccc(C(F)(F)F)cc3c(=O)c12 [Example 2-40, 3-Methyl-1-(2-pyridinyl)-6-(trifluoromethyl)-l,9-dihydro-4H-pyrazolo[3,4-b]quinolin-4-one] | 0 (100 mg/kg) mm |  | 
241 to 244 | COC(=O)c1cccc2[nH]c3c(c(C)nn3-c3ccccn3)c(=O)c12 [Example 2-61, Methyl 3-methyl-4-oxo-1-(2-pyridinyl)-4,9-dihydro-1H-pyrazolo[3,4-b]quinoline-5-carboxylate] |  |  | IC50 (human COX-1): 2 µM; IC50 (human COX-2): 44 µM; inhibition in vivo at 10 mg/kg ([2]; 2 hr after carrageenin injection, read-out: Repression rate (%) Dosage 10 mg/kg 2 hr later): 36%; inhibition in vivo at 10 mg/kg ([2]; 3 hr after carrageenin injection, read-out: Repression rate (%) Dosage 10 mg/kg 3 hr later): 28%; inhibition in vivo at 10 mg/kg [3]: 75%
278 to 280 | Cc1nn(-c2ccccn2)c2[nH]c3ccc(F)cc3c(=O)c12 [Example 2-81, 6-Fluoro-3-methyl-1-(2-pyridinyl)-1,9-dihydro-4H-pyrazolo[3,4-b]quinolin-4-one] |  | 56% | 
260 to 261 | Cc1nn(-c2ccccn2)c2[nH]c3cc(F)ccc3c(=O)c12 [Example 2-83, 7-Fluoro-3-methyl-1-(2-pyridinyl)-1,9-dihydro-4H-pyrazolo[3,4-b]quinolin-4-one] |  | 65* % | 
